Reference: article PMC9853328, “Potent Platinum(IV) Prodrugs That Incorporate a Biotin Moiety to Selectively Target Cancer Cells” (Pharmaceutics, 2022)
Where “and” joins values, the source holds several entries; their conditions need not be identical. Identical values can stand only once.

Assays:
U87 glioblastoma cells = assay: MTT in vitro cytotoxicity assay, U87; format: cell-based; conditions: 72 h drug exposure, n = 3, read-out: GI50 ± SEM, U87
In short: (§1)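 Cells plated 24 h before 72 h exposure to test agent in 8-point dose–response, in duplicate. Growth read by MTT absorbance at 540 nm; GI50 derived from optical density difference between day 0 and end of exposure, mean ± SEM of three separate experiments.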

H460 lung cancer cells = assay: MTT in vitro cytotoxicity assay, H460; format: cell-based; conditions: 72 h drug exposure, n = 3, read-out: GI50 ± SEM, H460
In short: as §1

[1] = system: BE2-C neuroblastoma cells; assay: MTT in vitro cytotoxicity assay, BE2-C; format: cell-based; conditions: 72 h drug exposure, n = 3, read-out: GI50 ± SEM, BE2-C
In short: as §1

SJ-G2 glioblastoma cells = assay: MTT in vitro cytotoxicity assay, SJ-G2; format: cell-based; conditions: 72 h drug exposure, n = 3, read-out: GI50 ± SEM, SJ-G2
In short: as §1

[2] = system: cisplatin-resistant ADDP ovarian (subclone of A2780) cancer cells; assay: MTT in vitro cytotoxicity assay, ADDP; format: cell-based; conditions: 72 h drug exposure, n = 3, read-out: GI50 ± SEM, ADDP
In short: as §1

[3] = Lipophilicity by RP-HPLC (logkw); format: physicochemical; conditions: capacity factor in 100% water
Description: HPLC experiments were carried out using an Agilent Technologies (Melbourne, Australia) 1260 Infinity instrument, equipped with a Phenomenex (Sydney, Australia) Onyx^TM Monolithic C18 reverse phase column (100 × 4.6 mm, 130 Å). The mobile phase was made up of 0.06% TFA in water (solvent A) and 0.06% TFA in an acetonitrile:water (9:1) mixture (solvent B). Samples were eluted over a gradient of 0–100% (% B) for 15 min, at a flow rate of 1 mL/min, with a sample injection volume of 10 µL. Eluting peaks were detected using a PDA at 254 nm.
For lipophilicity experiments, RP-HPLC was utilised to determine the logkw of each compound, similarly to what has been previously published for similar complexes. Samples were eluted at various isocratic percentages, ranging from 18–30% solvent B. To determine the dead volume of the column, potassium iodide was used as an external dead volume marker. The retention time of each sample in each isocratic run ( tr ) and the dead volume time ( t0 ) were both substituted in Equation (1) to calculate the capacity factor ( k ). (1) k=tr−t0/t0
Following this, logk was plotted against the percentage of ACN. For each complex, a minimum of four concentrations of ACN were used. This produced a linear graph with the equation in the form:(2) logk=Sφ+logkw where S is the slope, φ is the percentage of ACN, and logkw is the y-intercept, which represents the capacity factor of the compound in 100% water.
It is important to explore the lipophilicity of a drug, as it is widely believed that increased lipophilicity results in greater cellular accumulation. To understand the lipophilicity of 1–4, RP-HPLC was utilised to determine the logkw of each complex. To calculate this, each complex was eluted at different isocratic percentages, whereby the retention time was used in Equation (1) to calculate the capacity factor (k). The percentage of the organic solvent was then plotted against log k for each isocratic percentage, producing a linear equation that allowed for logkw to be deduced using Equation (2) (Figure S38). The logkw value represents the capacity factor of the compound in 100% water and can be used to compare a series of compounds. Since 1–4 comprise the same axially bound ligand, biotin, the lipophilicity was influenced by the groups on the PL. The logkw of each complex is presented in Table 1, with their corresponding PL. The increasing lipophilicity of the complexes followed the order: 1 < 4 < 2 < 3.

[4] = Reduction study with ascorbic acid via 1H NMR; format: physicochemical; conditions: 5 mM complex in D2O with 10X PBS, ascorbic acid 5 mM, 37 °C, four experiments
Description: To confirm that the reduction of these prodrugs occurs and the axially bound biotin ligands are released from the cytotoxic platinum(II) core, reduction studies were undertaken using ^1H NMR experiments for 3. The complex was prepared in 5 mM D2O with 10X PBS. Ascorbic acid (5 mM) was added, and the reduction was monitored at 37 °C by ^1H NMR experiments. Over time, the resonances corresponding to the platinum(IV) species decreased, while new resonances corresponding to the platinum(II) species increased (Figure 7).

Question: With `COc1cc[n+]2c3c1ccc1c(OC)cc[n+](c13)[Pt-2]21([OH])([O]C(=O)CCCC[C@@H]2SC[C@@H]3NC(=O)N[C@@H]32)[NH2+][C@H]2CCCC[C@@H]2[NH2+]1.O=[N+]([O-])[O-].O=[N+]([O-])[O-]` [Complex 3, [Pt(4,7-dimethoxy-1,10-phenanthroline)(1S,2S-diaminocyclohexane)(biotin)(hydroxido)](NO3)2] as the molecule, how does the GI50 (U87 glioblastoma cells) read?
Answer: The GI50 was 320 ± 60 nM.

Question: And the GI50 (H460 lung cancer cells)?
Answer: The GI50 was 270 ± 30 nM.

Question: What about the GI50 [1] of the same molecule?
Answer: Its GI50 is 2000 ± 70 nM.

Question: And the GI50 (SJ-G2 glioblastoma cells)?
Answer: Its GI50 is 570 ± 170 nM.

Question: And the GI50 [2]?
Answer: The GI50 was 170 ± 20 nM.

Question: And the logkw [3]?
Answer: The logkw was 0.96.

Question: What about the reduction half-life [4] of the same molecule?
Answer: The reduction half-life was ~ 30 ± 7 min and ~ 30 min.
